{"source": "patent US20210244686A1", "about": "“Novel Systems And Methods For The Therapeutic Use of Cannabinoids or Cannabinoid Analogs to Increase The Lipid Order of Cholesterol Containing Cell Membranes” (The Regents of the University of Colorado a body corporate, priority 2018, published 2021)", "key": {"[1]": {"test_system": "SKNBE2 neuroblastoma cells", "test": "Toxicity profiling, percent death with and without cholesterol challenge", "assay_type": "cell-based, human", "conditions": "24 hrs of exposure; high doses", "source_text": "FIG. 15. Toxicity profiling."}, "[2]": {"test": "FRAP of NBD-cholesterol in synthetic membrane monolayers", "conditions": "PC SUV derived monolayers, 20% cholesterol, 2% NBD-cholesterol", "source_text": "CBD's ability to affect cholesterol orientation in both synthetic and cell derived ER membranes implies that CBD may contribute to increased lipid order. The ability of cholesterol oxidase assays to reveal alterations in lipid order has been previously reported in studies noting that cholesterol oxidase can preferentially target caveolar domains, which are ordered lipid domains. Another hallmark of lipid order is a decrease in lateral diffusion of lipids. As a result, the present inventors aimed to measure CBD's ability to perturb the lateral diffusion of fluorescently labelled cholesterol (NBD-cholesterol) in synthetic membranes. The present inventors deposited PC SUVs containing 20% moles of cholesterol and 2% moles NBD-cholesterol on glass-bottom multi-well imaging plates, followed by ultra-sonification to construct fluorescently labelled membrane monolayers. Using these monolayers and confocal microscopy, the inventor's performed fluorescence recovery after photobleaching (FRAP) experiments to measure the kinetics of recovery of fluorescent cholesterol. […] This effect of CBD on lateral diffusion could be rescued with simultaneous treatment with the lipid disordering agent DHA (FIGS. 6G, I). There are two proposed models for how DHA affects cholesterol in membranes. […]"}, "SK-N-BE(2) cells": {"test_system": "SK-N-BE(2) cells", "test": "Fluorometric total cellular cholesterol (Amplex Red Cholesterol Assay Kit)", "assay_type": "cell-based, human", "conditions": "orthogonal experiment", "source_text": "FIG. 11A-C. (A) Plots of 13C labelled (left) and total+labeled cholesterol (right) abundances measured in methanol extracts from vehicle/CBD treated cells. (B) A similar analysis for cholesterol precursors. (C) Fluorometric measurement of total cellular cholesterol from methanol extracts of SK-N-BE(2) cells using the Amplex Red Cholesterol Assay Kit.\nThese findings raise the question of whether CBD treatment leads to alterations in lipid and cholesterol metabolism (the latter pathway depicted in FIG. 3A). The present inventors used mass spectrometry-based lipidomics, a subset of metabolomics, to quantify the effect of CBD on the fluxes of key lipids and sterols. Vehicle and CBD exposed cells were fed ^13C labeled glucose for 24 hours and harvested using methanol extraction and mass spectrometry analysis. Cholesterol biosynthesis was analyzed by determining the level of incorporation of ^13C into biosynthetic intermediates. […] The effect of CBD on total cellular cholesterol was confirmed using a fluorogenic assay for cholesterol in an orthogonal experiment (FIG. 11B)."}, "HEK293T cells": {"test_system": "HEK293T cells", "test": "Live cell microscopy apoptosis assay (caspase 3/7 dye)", "assay_type": "cell-based", "conditions": "DHA 75 μM with MBCD 300 μM or CBD 6.25 μM", "procedure": "In order to gain further insight into the sensitivity of CBD treated cells to 25-hydroxy cholesterol, the present inventors repeated the apoptosis assay in SK-N-BE(2) and HEK293T cells with combinatorial 25-hydroxy cholesterol/CBD stimulation using sublethal doses of 25-hydroxy cholesterol (15 μg/ml) and CBD (20 μM) in the presence or absence of either the chemical inhibitor of cholesterol transport (U18666A, 10 μM) or cholesterol storage (VULM 1457, 5 μM).\nFRAP experiments reveal that DHA and CBD have opposing effects on the lateral diffusion of fluorescently labelled cholesterol in synthetic membranes. Although this implies that CBD increases lipid order and that DHA decreases lipid order, it remains unclear how relevant these biophysical effects of CBD and DHA are to cellular physiology. As a result, the present inventors sought to determine whether CBD and DHA have opposing effects on cells. To this end, the present inventors repeated the live cell apoptosis assays in cells exposed to increasing doses of DHA to determine how DHA affects cell death."}}}
{"molecule": "C=C(C)[C@@H]1CCC(C)=C[C@H]1c1c(O)cc(CCCCC)cc1O", "note": "[CBD, cannabidiol]", "values": [{"measurement": "toxicity in cells challenged with a high cholesterol environment", "setting": "[1]", "value": "toxic"}, {"measurement": "FRAP kinetics (lateral diffusion of fluorescent cholesterol)", "setting": "[2]", "value": "significantly reduced"}, {"measurement": "effect on total cellular cholesterol, fluorogenic assay", "setting": "SK-N-BE(2) cells", "value": "confirmed"}, {"measurement": "effect on DHA induced apoptosis", "setting": "HEK293T cells", "value": "completely cancel the apoptotic effects"}]}
